# Assay results reported in patent publication US6350909B1, “Methoxymino-phenylacetamide derivatives and their utilization as pesticides” (Bayer Aktiengesellschaft, priority 1998, dated 2002).
smiles,measurement,value
"CON=C(C(=O)NC(=O)CCl)c1ccccc1CO/N=C(\C)c1ccc(C(F)(F)F)cc1 [Example 2, 2-chloro-N-(methoxyimino-{2-[1-(4-trifluoromethylphenyl)-ethylideneaminooxymethyl]-phenyl}-acetyl)-acetamide]",melting point,92 °C (dec.)
"COCC(=O)NC(=O)C(=NOC)c1ccccc1CO/N=C(\C)c1ccc(C(F)(F)F)cc1 [Example 1, 2-methoxy-N-(methoxyimino-{2-[1-(4-trifluoromethylphenyl)-ethylideneaminooxymethyl]-phenyl}-acetyl)-acetamide]",melting point,134 to 138 °C
